IC50 data for 26 molecules are collected here from US8648066B2 (Exelixis, Inc., priority 2009, dated 2014).

pIC50: −log10 of the molar value.

In this test the target is mTOR/GbL/Raptor (mTORC1) (Homo sapiens, UniProt P42345). In words: mTOR/GbL/Raptor (mTORC1) ELISA assay. It counts as biochemical. Conditions: phosphorylation of 4E-BP1; 0.2 nM mTORC1, 10 μM ATP; read-out: IC50 in this assay (mTORC1 ELISA). In outline: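 Human mTORC1 (0.2 nM) phosphorylated 50 nM His-tagged 4E-BP1 with 10 µM ATP in HEPES pH 7.2 containing 10 mM MnCl2, 120 min at ambient temperature. Substrate was captured on Ni-chelate plates; phospho-4E-BP1 was detected by primary antibody and HRP secondary with luminescence.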
`COc1ccc(-c2ccc3c(c2)CN(c2nc(CN(C)C)nc4c2CC(C)(C)CC4)CCO3)cc1OC` [Example 323, 1-(4-{7-[3,4-bis(methyloxy)phenyl]-2,3-dihydro-1,4-benzoxazepin-4(5H)-yl}-6,6-dimethyl-5,6,7,8-tetrahydroquinazolin-2-yl)-N,N-dimethylmethanamine]: the negative-log IC50 (pIC50) is 6.00 to 6.60. For `COc1ccc(-c2ccc3c(c2)CN(c2nc(CN(C)C)nc4c2CC(C)(C)CC4)CCO3)cc1Cl` [Example 324, 1-(4-{7-[3-chloro-4-(methyloxy)phenyl]-2,3-dihydro-1,4-benzoxazepin-4(5H)-yl}-6,6-dimethyl-5,6,7,8-tetrahydroquinazolin-2-yl)-N,N-dimethylmethanamine], the negative logarithm of the IC50 (pIC50) is 6.00 to 6.60.

Take `CN(C)Cc1nc2c(c(N3CCOc4ccc(-c5ccc(-c6ncc[nH]6)cc5)cc4C3)n1)CC(C)(C)CC2` [Example 325]: the pIC50 was not below 8.00. Consider `COCCOc1ccc(-c2ccc3c(c2)CN(c2nc(CN(C)C)nc4c2CC(C)(C)CC4)CCO3)cc1OC` [Example 327, 1-(6,6-dimethyl-4-{7-[3-(methyloxy)-4-{[2-(methyloxy)ethyl]oxy}phenyl]-2,3-dihydro-1,4-benzoxazepin-4(5H)-yl}-5,6,7,8-tetrahydroquinazolin-2-yl)-N,N-dimethylmethanamine], for which the pIC50 is 6.00 to 6.60. As to `COc1ccc(-c2ccc3c(c2)CN(c2nc(CN(C)C)nc4c2CC(C)(C)CC4)CCO3)cn1` [Example 330, 1-(6,6-dimethyl-4-{7-[6-(methyloxy)pyridin-3-yl]-2,3-dihydro-1,4-benzoxazepin-4(5H)-yl}-5,6,7,8-tetrahydroquinazolin-2-yl)-N,N-dimethylmethanamine], the pIC50 was 6.00 to 6.60. Regarding `Cc1nc(CN(C)C)nc(N2CCOc3ccc(-c4ccc5[nH]c(C(F)F)nc5c4)cc3C2)c1C(C)C` [Example 331, 1-[4-{7-[2-(difluoromethyl)-1H-benzimidazol-5-yl]-2,3-dihydro-1,4-benzoxazepin-4(5H)-yl}-6-methyl-5-(1-methylethyl)pyrimidin-2-yl]-N,N-dimethylmethanamine], the pIC50 is 6.60 to 7.30. The same measure for `Cc1nc(CN(C)C)nc(N2CCOc3ccc(-c4ccc5[nH]c(CF)nc5c4)cc3C2)c1C(C)C` [Example 332, 1-[4-{7-[2-(fluoromethyl)-1H-benzimidazol-5-yl]-2,3-dihydro-1,4-benzoxazepin-4(5H)-yl}-6-methyl-5-(1-methylethyl)pyrimidin-2-yl]-N,N-dimethylmethanamine]: 6.60 to 7.30; for `COc1ccc2c(N3CCOc4ccc(-c5ccc(OC)c(OC)c5)cc4C3)nc(CN(C)C)nc2c1` [Example 333, 1-[4-{7-[3,4-bis(methyloxy)phenyl]-2,3-dihydro-1,4-benzoxazepin-4(5H)-yl}-7-(methyloxy)quinazolin-2-yl]-N,N-dimethylmethanamine]: not above 5.70; for `CC[C@H]1CCc2c(nc(CN(C)C)nc2N2CCOc3ccc(-c4cnc5nc(C)[nH]c5c4)cc3C2)C1` [Example 334, 1-{(7S)-7-ethyl-4-[7-(2-methyl-1H-imidazo[4,5-b]pyridin-6-yl)-2,3-dihydro-1,4-benzoxazepin-4(5H)-yl]-5,6,7,8-tetrahydroquinazolin-2-yl}-N,N-dimethylmethanamine]: 7.30 to 8.00.

On to `Cc1nc(CN(C)C)nc(N2CCOc3ccc(-c4ccc5scnc5c4)cc3C2)c1Cc1ccc(F)cc1` [Example 336, 1-{4-[7-(1,3-benzothiazol-5-yl)-2,3-dihydro-1,4-benzoxazepin-4(5H)-yl]-5-[(4-fluorophenyl)methyl]-6-methylpyrimidin-2-yl}-N,N-dimethylmethanamine], for which the negative logarithm of the IC50 (pIC50) is 6.60 to 7.30. Regarding `CN(C)Cc1nc2c(c(N3CCOc4ccc(-c5ccc6scnc6c5)cc4C3)n1)CC(C)(C)CC2` [Example 337, 1-{4-[7-(1,3-benzothiazol-5-yl)-2,3-dihydro-1,4-benzoxazepin-4(5H)-yl]-6,6-dimethyl-5,6,7,8-tetrahydroquinazolin-2-yl}-N,N-dimethylmethanamine], the pIC50 is 6.00 to 6.60.

Turning to `COC1Cc2nc(CN(C)C)nc(N3CCOc4ccc(-c5ccc6scnc6c5)cc4C3)c2CC1(C)C` (centres unmarked) [Example 338, 1-{4-[7-(1,3-benzothiazol-5-yl)-2,3-dihydro-1,4-benzoxazepin-4(5H)-yl]-6,6-dimethyl-7-(methyloxy)-5,6,7,8-tetrahydroquinazolin-2-yl}-N,N-dimethylmethanamine], the pIC50 is not above 5.70. As to `CN(C)Cc1nc2c(c(N3CCOc4ccc(-c5cnc6nc(C7CC7)[nH]c6c5)cc4C3)n1)CC(C)(C)CC2` [Example 339, 1-{4-[7-(2-cyclopropyl-1H-imidazo[4,5-b]pyridin-6-yl)-2,3-dihydro-1,4-benzoxazepin-4(5H)-yl]-6,6-dimethyl-5,6,7,8-tetrahydroquinazolin-2-yl}-N,N-dimethylmethanamine], the negative logarithm of the IC50 (pIC50) is not below 8.00. For `Cc1nc2ncc(-c3ccc4c(c3)CN(c3ncnc5c3CCC(C(C)O)C5)CCO4)cc2[nH]1` (centres unmarked) [Example 340, 1-{4-[7-(2-methyl-1H-imidazo[4,5-b]pyridin-6-yl)-2,3-dihydro-1,4-benzoxazepin-4(5H)-yl]-5,6,7,8-tetrahydroquinazolin-7-yl}ethanol] the value was 6.60 to 7.30. For `Cc1nc2c(F)c(-c3ccc4c(c3)CN(c3nc(CN(C)C)nc5c3CC(C)(C)CC5)CCO4)ccc2[nH]1` [Example 341, 1-{4-[7-(4-fluoro-2-methyl-1H-benzimidazol-5-yl)-2,3-dihydro-1,4-benzoxazepin-4(5H)-yl]-6,6-dimethyl-5,6,7,8-tetrahydroquinazolin-2-yl}-N,N-dimethylmethanamine] the value was 6.00 to 6.60; for `Cc1nc2cc(-c3ccc4c(c3)CN(c3nc(CN(C)C)nc5c3CC(C)(C)CC5)CCO4)c(F)cc2[nH]1` [Example 342, 1-{4-[7-(6-fluoro-2-methyl-1H-benzimidazol-5-yl)-2,3-dihydro-1,4-benzoxazepin-4(5H)-yl]-6,6-dimethyl-5,6,7,8-tetrahydroquinazolin-2-yl}-N,N-dimethylmethanamine], 6.00 to 6.60; for `CCc1nc(CN(C)C)nc(N2CCOc3ccc(-c4ccc5[nH]c(C)nc5c4)cc3C2)c1C` [Example 343, 1-{4-ethyl-5-methyl-6-[7-(2-methyl-1H-benzimidazol-5-yl)-2,3-dihydro-1,4-benzoxazepin-4(5H)-yl]pyrimidin-2-yl}-N,N-dimethylmethanamine], 5.70 to 6.00. For `CCc1nc(CN(C)C)nc(N2CCOc3ccc(-c4cnc5[nH]c(C)nc5c4)cc3C2)c1C` [Example 344, 1-{4-ethyl-5-methyl-6-[7-(2-methyl-3H-imidazo[4,5-b]pyridin-6-yl)-2,3-dihydro-1,4-benzoazepin-4(5H)-yl]pyrimnidin-2-yl}-N,N-dimethylmethanamine] the value was 6.00 to 6.60. Consider `Cc1nc2ccc(-c3ccc4c(c3)CN(c3nc(CN(C)C)nc(C)c3CC3CC3)CCO4)cc2[nH]1` [Example 345, 1-{5-(cyclopropylmethyl)-4-methyl-6-[7-(2-methyl-1H-benzimidazo-6-yl)-2,3-dihydro-1,4-benzoxazepin-4(5H)-yl]pyrimidin-2-yl}-N,N-dimethylmethanamine], for which the negative logarithm of the IC50 (pIC50) was 6.00 to 6.60. As for `Cc1nc2ncc(-c3ccc4c(c3)CN(c3nc(CN(C)C)nc(C)c3CC3CC3)CCO4)cc2[nH]1` [Example 346, 1-{5-(cyclopropylmethyl)-4-methyl-6-[7-(2-methyl-1H-imidazo[4,5-b]pyridin-6-yl)-2,3-dihydro-1,4-benzoxazepin-4(5H)-yl]pyrimidin-2-yl}-N,N-dimethylmethanamine], the negative-log IC50 (pIC50) was 6.60 to 7.30. In the case of `Cc1nc2cc(-c3ccc4c(c3)CN(c3nc(CN(C)C)nc(C)c3Cc3ccc(F)cc3)CCO4)ccc2[nH]1` [Example 347, 1-{5-[(4-fluorophenyl)methyl]-4-methyl-6-[7-(2-methyl-1H-benzimidazol-5-yl)-2,3-dihydro-1,4-benzoxazepin-4(5H)-yl]pyrimidin-2-yl}-N,N-dimethylmethanamine], the negative logarithm of the IC50 (pIC50) is not below 8.00. Turning to `Cc1nc2cc(-c3ccc4c(c3)CN(c3nc(CN(C)C)nc(C)c3Cc3ccc(F)cc3)CCO4)cnc2[nH]1` [Example 348, 1-{5-[(4-fluorophenyl)methyl]-4-methyl-6-[7-(2-methyl-3H-imidazo[4,5-b]pyridin-6-yl)-2,3-dihydro-1,4-benzoxazepin-4(5H)-yl]pyrimidin-2-yl}-N,N-dimethylmethanamine], the pIC50 was not below 8.00. The same measure for `CCc1c(C)nc(CN(C)C)nc1N1CCOc2ccc(-c3ccc4[nH]c(C)nc4c3)cc2C1` [Example 349, 1-{5-ethyl-4-methyl-6-[7-(2-methyl-1H-benzimidazol-5-yl)-2,3-dihydro-1,4-benzoxazepin-4(5H)-yl]pyrimidin-2-yl}-N,N-dimethylmethanamine]: 6.00 to 6.60; for `CCc1c(C)nc(CN(C)C)nc1N1CCOc2ccc(-c3cnc4[nH]c(C)nc4c3)cc2C1` [Example 350, 1-{5-ethyl-4-methyl-6-[7-(2-methyl-3H-imidazo[4,5-b]pyridin-6-yl)-2,3-dihydro-1,4-benzoxazepin-4(5H)-yl]pyrimidin}-N,N-dimethylmethanamine]: 6.60 to 7.30; for `Cc1nc2ccc(-c3ccc4c(c3)CN(c3nc(CN(C)C)nc5c3CC(C)(C)CC5)CCO4)cc2[nH]1` [Example 351, 1-{6,6-dimethyl-4-[7-(2-methyl-1H-benzimidazol-6-yl)-2,3-dihydro-1,4-benzoxazepin-4(5H)-yl]-5,6,7,8-tetrahydroquinazolin-2-yl}-N,N-dimethylmethanamine]: 7.30 to 8.00.

Consider `Cc1nc2ncc(-c3ccc4c(c3)CN(c3nc(CN)nc5c3CC(C)(C)CC5)CCO4)cc2[nH]1` [Example 352, 1-{6,6-dimethyl-4-[7-(2-methyl-1H-imidazo[4,5-b]pyridin-6-yl)-2,3-dihydro-1,4-benzoxazepin-4(5H)-yl]-5,6,7,8-tetrahydroquinazolin-2-yl}methanamine], for which the pIC50 is not below 8.00.
